# Several values for one entry are separate records, joined by “and”; a condition that tells them apart may be missing. Equal values may be shown once. *1 amine or outer side, *2 acyl side, *3 side chain or, on linkers, in order; H or OH if unused. Where a SMILES comes first, the peptide text is derived from it. Bridges are numbered along the chain shown (N, C = ends). [ ]: non-standard residue; d: D form. X1 = CC(=O)NC(C(=O)OC(C(C)C)C(N[*:1])C(=O)[*:2])C(O)C(C)C; PhLac = O=C(O)[CH](O)Cc1ccccc1; NMeT = CN[CH](C(=O)O)[CH](C)O; NMeA = CN[CH](C)C(=O)O; NMeDha = C=C(NC)C(=O)O
# How the values were obtained:
# [1] = system: mock-transfected HEK293T cells; experiment: IP1 accumulation, mock-transfected cells; assay type: cell-based, human; set-up: IP1 Basal / IP1 span / IP1 Emax / IP1 accumulation, dose-response (Figure 1a) / IP1 accumulation with YM (Figure 1c) / IP1 accumulation: unit not given here; settings: for IP1 Basal / IP1 Emax / IP1 span: Mock
# Procedure: (§1) HEK293T cells were transfected with 1 pg/cell of MRGPRX4 DNA, and the amount of DNA was kept constant at 2 pg/cell with pcDNA3.1(+) empty vector, unless otherwise specified. Twenty four hours after transfection, IP1 assay was performed as previously described ([51]). When applicable, cells were treated with 1 μM YM254890 (YM) or different concentrations of U73122 for 1 h prior to addition of agonist or buffer. After incubation for 2 h, HTRF reagents and IP1 calibration standards were added and incubated for 2 h in the dark at room temperature. Time-resolved fluorescence signals were read on the BioTek Synergy NEO-TRF Hybrid multi-mode reader (BioTek Instruments). All data were carried out in three independent experiments with three technical replicate each.
# (§2) Validation of CALCRL constructs was assayed by cotransfecting HEK293T cells with different tagged versions of CALCRL alone or with each RAMP and with the promiscuous Gqs5 Gq chimera protein, at a respective DNA ratio of 1:1:0.5. Gqs5 is an engineered Gq protein containing the last five amino acid residues of Gs, which allows Gs-coupled GPCRs to signal through Gq downstream signaling pathways ([55]). The homogenous transfection method described above was used for all DNA mixes. CALCRL:RAMP2:Gqs5-transfected cells served as positive control for RAMP functionality.
# (§3) Data reduction, standard calibration, and transformation of HTRF data were performed as previously described ([51]). Normalized IP1 values were calculated relative to the unstimulated mock-transfected cells (set to 0%) and fully stimulated MRGPRX4 (alone if applicable) (set to 100%).
# CALCRL + RAMP3 = target: T1, CALCRL + RAMP3 (Homo sapiens, UniProt O60896+Q16602); experiment: IP1 accumulation, CALCRL with RAMP3 and Gqs5; assay type: cell-based
# T1 construct: 5-HT3a receptor signal peptide (X1) (N); expressed in transfected cells; host or cells: HEK293T
# T1 sequence (Q16602 23-461): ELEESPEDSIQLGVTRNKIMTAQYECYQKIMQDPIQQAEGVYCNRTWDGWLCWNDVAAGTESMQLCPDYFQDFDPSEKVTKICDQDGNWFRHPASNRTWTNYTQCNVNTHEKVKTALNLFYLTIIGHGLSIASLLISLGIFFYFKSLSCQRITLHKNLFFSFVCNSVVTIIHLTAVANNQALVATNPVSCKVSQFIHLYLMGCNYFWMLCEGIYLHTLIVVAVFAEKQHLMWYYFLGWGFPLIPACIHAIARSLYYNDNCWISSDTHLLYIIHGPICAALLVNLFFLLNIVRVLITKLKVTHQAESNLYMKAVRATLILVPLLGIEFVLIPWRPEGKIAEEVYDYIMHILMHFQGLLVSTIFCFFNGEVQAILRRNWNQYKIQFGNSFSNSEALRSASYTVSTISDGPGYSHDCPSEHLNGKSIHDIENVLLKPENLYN
# T1 sequence (O60896 28-148 limits assumed): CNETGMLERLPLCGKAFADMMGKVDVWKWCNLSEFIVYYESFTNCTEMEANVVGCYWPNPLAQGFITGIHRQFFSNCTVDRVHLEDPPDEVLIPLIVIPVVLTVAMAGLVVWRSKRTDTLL
# Procedure: as §2, §3
# CALCRL = target: T2, CALCRL (Homo sapiens, UniProt Q16602); experiment: IP1 accumulation, CALCRL alone with Gqs5; assay type: cell-based
# T2 construct: 5-HT3a receptor signal peptide (X1) (N); expressed in transfected cells; host or cells: HEK293T
# T2 sequence (Q16602 23-461): as the sequence (Q16602 23-461) above
# Procedure: as §2, §3
# MRGPRX4 = target: T3, MRGPRX4 (Homo sapiens, UniProt Q96LA9); experiment: IP1 accumulation HTRF assay, MRGPRX4; assay type: cell-based; set-up: key to IP1 Basal / IP1 accumulation with YM (Figure 1c) / response to agonist, MRGPRX4 / IP1 accumulation: % IP1: unstimulated mock-transfected = 0%, fully stimulated MRGPRX4 = 100%; settings: for effect on nateglinide and DCA IP1 responses: inhibitor pretreatment 1 h (Fig. S1D-E); for effect on MRGPRX4 basal IP1 activity: no agonist (Figs. 1C and S1E); for IP1 accumulation with YM (Figure 1c): YM 1 µM, no agonist
# T3 construct: expressed in transfected cells; host or cells: HEK293T
# T3 sequence (Q96LA9 whole entry): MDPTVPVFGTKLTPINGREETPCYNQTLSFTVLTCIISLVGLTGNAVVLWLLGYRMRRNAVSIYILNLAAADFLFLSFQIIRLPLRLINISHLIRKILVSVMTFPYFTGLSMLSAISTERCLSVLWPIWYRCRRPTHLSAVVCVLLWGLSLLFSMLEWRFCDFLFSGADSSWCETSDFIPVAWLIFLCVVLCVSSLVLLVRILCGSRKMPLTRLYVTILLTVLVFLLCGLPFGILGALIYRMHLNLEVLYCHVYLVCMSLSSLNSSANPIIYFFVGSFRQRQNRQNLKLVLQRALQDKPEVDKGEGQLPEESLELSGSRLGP
# Procedure: as §1
# (§4) For characterization of the Tet-On Nluc-HT7-MRGPRX4-GFP10-1D4 construct, HEK293T cells were transfected as previously described with some modifications. Dox dose-response of NLuc-HT7-MRGPRX4-GFP10-1D4 DNA titration was assayed by transfecting HEK293T cells with either 1 or 2 pg/cell of NLuc-HT7-MRGPRX4-GFP10-1D4 construct. Receptor expression was induced 4 h after transfection with addition of different concentrations of dox for 20 h. For the RAMP DNA titration assay, cells were cotransfected with a constant amount of 1 pg/cell of NLuc-HT7-MRGPRX4-GFP10-1D4 DNA and 1, 0.75, 0.5, or 0 pg/cell of each HA-RAMP-OLLAS with the homogenous transfection method. Four hours after transfection, receptor expression was induced with addition of 1000 ng/ml dox. Twenty hours after induction, IP1 assay was performed.
# as §3
# Tet-On MRGPRX4 = experiment: dox-induced total receptor expression, Nano-Glo luminescence; assay type: cell-based, human; settings: normalized total luminescence (Fig. S5I); for EC50: Homo sapiens
# Procedure: as §4
# HEK293T cells were transfected with 1 pg/cell of Tet-On FLAG-NLuc-HT7-MRGPRX4-GFP10-1D4 alone or coexpressed with 0.7, 0.5, 0.3, or 0.1 pg/cell of each RAMP, and expression was induced 4 h after transfection with 1000 ng/ml dox. HEK293T cells transfected with 1 pg/cell of Tet-On CALCRL alone or with 0.5 pg/cell of RAMP2 served as controls. Twenty hours after transfection, media was replaced with BRET buffer. First, the HT7-tagged GPCR was labeled with “pulse” of 100 nM HaloTag Alexa Fluor 660 (cell impermeable, emission 690 nm) for 2 h at 16 °C in the dark. Next, a chase step was performed by adding 100 nM HaloTag 618 (cell permeable, emission 620 nm) for 2 h at 16 °C in the dark. Lastly, Nano-Glo Luciferase assay reagent was prepared per manufacturer’s instructions. Optimal dosage of dox was determined by selecting the concentration at the plateau from a dox dose-response experiment, in which dox-induced expression was assayed with the additional of Nano-Glo Luciferase assay reagent (Fig. S5I).
# Data were acquired by measuring the luminescence at 460, 618, and 690 nm in kinetics mode on a SpectraMax i3X at 37 °C. The obtained emission intensity values were corrected, normalized, plotted against each other, and fitted to a linear equation to generate a scaling factor that was then used to calculate and graph the percentage surface labeling. Experiments were conducted in biological triplicate with three technical replicates each. The corrected 690/460 BRET ratio was normalized to the mean of MRGPRX4 alone (+dox). Similarly, total expression was normalized to the mean of the 460 nm luminescence for MRGPRX4 alone (+dox).
# [2] = HA-CALCRL-1D4 series (Fig. S4J-L)
# [3] = HA-CALCRL-GFP10-1D4 series (Fig. S4G-I)
# [4] = HA-CALCRL-1D4 + FLAG-RAMP3-OLLAS (Fig. S4J-L)
# [5] = HA-CALCRL-1D4 + HA-RAMP3-OLLAS (Fig. S4J-L)
# [6] = HA-CALCRL-GFP10-1D4 + FLAG-RAMP3-OLLAS (Fig. S4G-I)
# [7] = HA-CALCRL-GFP10-1D4 + HA-RAMP3-OLLAS (Fig. S4G-I)
# [8] = HA-CALCRL-1D4 alone (Fig. S4J-L)
# [9] = HA-CALCRL-GFP10-1D4 alone (Fig. S4G-I)
# [10] = Tet-On MRGPRX4+RAMP2 (DNA ratio 1:0.5)
smiles,measurement,setting,value
CC[C@H](C)[C@H](NC(=O)[C@H](CCC(N)=O)NC(=O)[C@H](Cc1c[nH]cn1)NC(=O)[C@H](C)NC(=O)[C@H](CC(C)C)NC(=O)[C@H](CCCCN)NC(=O)[C@H](CCC(N)=O)NC(=O)[C@@H](NC(=O)[C@@H](NC(=O)[C@@H]1CSSC[C@H](NC(=O)CNC(=O)[C@H](Cc2ccccc2)NC(=O)[C@H](CO)NC(=O)[C@H](CCCNC(=N)N)NC(=O)[C@H](CC(C)C)NC(=O)CNC(=O)[C@H](CCC(N)=O)NC(=O)[C@H](Cc2ccccc2)NC(=O)[C@H](CC(N)=O)NC(=O)[C@H](CC(N)=O)NC(=O)[C@H](CCSC)NC(=O)[C@H](CO)NC(=O)[C@H](CCC(N)=O)NC(=O)[C@H](CCCNC(=N)N)NC(=O)[C@@H](N)Cc2ccc(O)cc2)C(=O)N[C@@H](CCCNC(=N)N)C(=O)N[C@@H](Cc2ccccc2)C(=O)NCC(=O)N[C@@H]([C@@H](C)O)C(=O)N1)[C@@H](C)O)C(C)C)C(=O)N[C@@H](Cc1ccc(O)cc1)C(=O)N[C@@H](CCC(N)=O)C(=O)N[C@@H](Cc1ccccc1)C(=O)N[C@H](C(=O)N[C@@H](CC(=O)O)C(=O)N[C@@H](CCCCN)C(=O)N[C@@H](CC(=O)O)C(=O)N[C@@H](CCCCN)C(=O)N[C@@H](CC(=O)O)C(=O)N[C@@H](CC(N)=O)C(=O)N[C@H](C(=O)N[C@@H](C)C(=O)N1CCC[C@H]1C(=O)N[C@@H](CCCNC(=N)N)C(=O)N[C@@H](CO)C(=O)N[C@@H](CCCCN)C(=O)N[C@H](C(=O)N[C@@H](CO)C(=O)N1CCC[C@H]1C(=O)N[C@@H](CCC(N)=O)C(=O)NCC(=O)N[C@@H](Cc1ccc(O)cc1)C(N)=O)[C@@H](C)CC)C(C)C)[C@@H](C)O [Adrenomedullin],IP1 Basal,[1]; [2],0.9133
same,IP1 Emax,[1]; [2],0.05397
same,IP1 span,[1]; [2],-0.8593
same,IP1 Basal,[1]; [3],0.1993
same,IP1 Emax,[1]; [3],11.54
same,IP1 span,[1]; [3],11.34
same,Emax,CALCRL + RAMP3; [4],96%
same,IP1 Basal,CALCRL + RAMP3; [4],9.152
same,IP1 span,CALCRL + RAMP3; [4],86.8%
same,Emax,CALCRL + RAMP3; [5],108%
same,IP1 Basal,CALCRL + RAMP3; [5],8.590
same,IP1 span,CALCRL + RAMP3; [5],99.5%
same,Emax,CALCRL + RAMP3; [6],84.9%
same,IP1 Basal,CALCRL + RAMP3; [6],11.09
same,IP1 span,CALCRL + RAMP3; [6],73.8%
same,Emax,CALCRL + RAMP3; [7],102%
same,IP1 Basal,CALCRL + RAMP3; [7],9.590
same,IP1 span,CALCRL + RAMP3; [7],92%
same,IP1 Basal,CALCRL; [8],11.35
same,IP1 span,CALCRL; [8],Unstable
same,Emax,CALCRL; [9],10.5%
same,IP1 Basal,CALCRL; [9],4.246
same,Span,CALCRL; [9],6.24%
COc1ccc2c(c1)CC[C@@H]1[C@@H]2CC[C@]2(C)[C@@H](NCCCCCCN3C(=O)C=CC3=O)CC[C@@H]12 [U73122],IP1 accumulation,"MRGPRX4; MRGX4, Basal, U73122 30uM, Fig S1e",3.194 and 5.28
same,effect on nateglinide and DCA IP1 responses,MRGPRX4,inhibited
same,effect on MRGPRX4 basal IP1 activity,MRGPRX4,abolished
C=C1C(=O)NC(C)C(=O)N(C)C(C)C(=O)NC(C(OC(=O)C(NC(C)=O)C(O)C(C)C)C(C)C)C(=O)N(C)C(C(C)OC)C(=O)OC(C)C(NC(C)=O)C(=O)OC(Cc2ccccc2)C(=O)N1C (centres unmarked) [YM254890] (Ac-T[PhLac][NMeDha]A[NMeA][X1][NMeT](Me); ester 1-C; configuration not given here),IP1 accumulation with YM (Figure 1c),"[1]; YM 1 µM, MRGPRX4 0 pg DNA/cell, no agonist",1.719
same,IP1 accumulation with YM (Figure 1c),MRGPRX4; MRGPRX4 0.125 pg DNA/cell,1.405
same,IP1 accumulation with YM (Figure 1c),MRGPRX4; MRGPRX4 0.25 pg DNA/cell,1.309
same,IP1 accumulation with YM (Figure 1c),MRGPRX4; MRGPRX4 0.5 pg DNA/cell,1.374
same,IP1 accumulation with YM (Figure 1c),MRGPRX4; MRGPRX4 1 pg DNA/cell,1.6019
same,IP1 accumulation with YM (Figure 1c),MRGPRX4; MRGPRX4 2 pg DNA/cell,1.692
same,effect on nateglinide and DCA IP1 responses,MRGPRX4,inhibited
same,effect on MRGPRX4 basal IP1 activity,MRGPRX4,abolished
"C[C@H]1c2cccc(O)c2C(=O)C2=C(O)[C@]3(O)C(=O)C(C(N)=O)=C(O)[C@@H](N(C)C)[C@@H]3[C@@H](O)[C@@H]21 [dox, doxycycline]",EC50,Tet-On MRGPRX4; [10],8.07 ng/mL
same,EC50,Tet-On MRGPRX4; Tet-On MRGPRX4 alone,4.05 ng/mL
same,total expression Basal,Tet-On MRGPRX4; [10],0.003719
same,total expression Emax,Tet-On MRGPRX4; [10],0.7930
same,total expression logEC50,Tet-On MRGPRX4; [10],0.9067
same,total expression span,Tet-On MRGPRX4; [10],0.7893
same,total expression Basal,Tet-On MRGPRX4; Tet-On MRGPRX4 alone,0.009273
same,total expression Emax,Tet-On MRGPRX4; Tet-On MRGPRX4 alone,0.9497
same,total expression logEC50,Tet-On MRGPRX4; Tet-On MRGPRX4 alone,0.6070
same,total expression span,Tet-On MRGPRX4; Tet-On MRGPRX4 alone,0.9404

# Reference: article PMC10165273, “Itch receptor MRGPRX4 interacts with the receptor activity–modifying proteins” (The Journal of Biological Chemistry, 2023)
